The record followed here is US11419918B2, “Treatment of biliary cirrhosis based on oxyntomodulin analogue GLP-1R/GCGR dual-target agonist peptide” (Shenzhen Turier Biotech Co., Ltd., priority 2017, dated 2022).

Numbered stars: 1 amine (or outer) side, 2 acyl side, 3 side chain; on linkers, the order of the positions; unused ones are H or OH. Square brackets hold non-standard residues; d marks the D form. Primed or numbered codes have the meaning given here. Side chains are listed from the residue outwards. Ends that are not written are not given here. * marks the point of attachment. C18 diacid = O=C(O)CCCCCCCCCCCCCCCCC(=O)*; C16 diacid = O=C(O)CCCCCCCCCCCCCCC(=O)*; γGlu = O=C(O)[C@H](CCC(=O)[*:2])N[*:1]; Stearoyl = CCCCCCCCCCCCCCCCCC(=O)*; Palmitoyl = CCCCCCCCCCCCCCCC(=O)*; Nle = CCCC[C@H](N)C(=O)O; PEG2′ = not defined here; Aib = CC(C)(N)C(=O)O

This assay deals with human hepatic stellate cells (LX-2). Put plainly: In vitro inhibition of hepatic fibrosis: expression of activation marker α-SMA in LX-2 cells (Western Blot, β-actin internal reference). In kind it is cell-based. Conditions: 10.0 μM, 48 hours, negative control (PBS) = 100%. How it is done: Hepatic stellate cell strain LX-2 was selected to study and observe the effect of different doses of test substances on the expression of LX-2 cell activation marker α-SMA. Hepatic stellate cell LX-2 was laid on 35 mm cell culture plate, cultured with DMEM (high glucose)+10% FBS+1% double-antibody culture medium (Thermo Fisher), placed overnight when the cells grew to 70% convergence at 37° C. and under the condition of 5% CO2, and treated with the above GLP-1R/GCGR dual target agonist polypeptides 1-48 (dissolved in PBS) for 48 hours the next day morning to extract cell protein, carry out Western Blot, and take β-actin as internal reference and analyze the expression quantities of α-SMA and β-actin by a gray level of Image J 1.50i. PBS with the same volume as that in experimental group was added in negative control. […] The integrating gray level of α-SMA/β-actin in the negative control group was 100% to analyze the in vitro inhibition activity of hepatic fibrosis of tested polypeptide.
(In general: A western blot detects proteins with antibodies after separation by electrophoresis.)
Regarding “His-(D-Ser)-Gln-Gly-Thr-Phe-Thr-Ser-Asp-Tyr-Ser-Lys-Tyr-Leu-Asp-Glu-Lys-Ala-Ala-Lys(PEG2-PEG2-γGlu-CO(CH2)16CO2H)-Glu-Phe-Ile-Glu-Trp-Leu-Leu-Asn-Gly-Gly-Pro-Ser-Ser-Gly-Ala-Pro-Pro-Pro-Ser-NH2 (H[dS]QGTFTSDYSKYLDEKAAK([PEG2′-PEG2′-γGlu-C18 diacid])EFIEWLLNGGPSSGAPPPS-NH2) [Compound 26]”, the “Relative expression of α-SMA (α-SMA/β-actin, %)” value is reported as 44.44%.
Take “His-(D-Ser)-Gln-Gly-Thr-Phe-Thr-Ser-Asp-Tyr-Ser-Lys-Tyr-Leu-Asp-Lys(PEG2-PEG2-CO(CH2)14CH3)-Arg-Arg-Ala-Gln-Asp-Phe-Val-Gln-Trp-Leu-Leu-Asn-Thr-Gly-Gly-Pro-Ser-Ser-Gly-Ala-Pro-Pro-Pro-Ser-NH2 (H[dS]QGTFTSDYSKYLDK([PEG2′-PEG2′-Palmitoyl])RRAQDFVQWLLNTGGPSSGAPPPS-NH2) [Compound 42]”: the “Relative expression of α-SMA (α-SMA/β-actin, %)” value came out at 38.11%.
On to “His-(D-Ser)-Gln-Gly-Thr-Phe-Thr-Ser-Asp-Tyr-Ser-Lys-Tyr-Leu-Asp-Lys(PEG2-PEG2-CO(CH2)16CO2H)-Arg-Arg-Ala-Gla-Asp-Phe-Val-Gln-Trp-Leu-Met-Asn-Thr-Gly-Gly-Pro-Ser-Ser-Gly-Ala-Pro-Pro-Pro-Ser-NH2 (H[dS]QGTFTSDYSKYLDK([PEG2′-PEG2′-C18 diacid])RRAQDFVQWLMNTGGPSSGAPPPS-NH2; also: position 20: name writes Gla, letters give Q) [Compound 35]”, for which the “Relative expression of α-SMA (α-SMA/β-actin, %)” value was 51.28%.
Regarding “His-(D-Ser)-Gln-Gly-Thr-Phe-Thr-Ser-Asp-Tyr-Ser-Lys-Tyr-Leu-Asp-Lys(PEG2-PEG2-CO(CH2)16CO2H)-Arg-Arg-Ala-Gln-Asp-Phe-Val-Gln-Trp-Leu-Nle-Asn-Thr-Gly-Gly-Pro-Ser-Ser-Gly-Ala-Pro-Pro-Pro-Ser-NH2 (H[dS]QGTFTSDYSKYLDK([PEG2′-PEG2′-C18 diacid])RRAQDFVQWL[Nle]NTGGPSSGAPPPS-NH2) [Compound 41]”, the “Relative expression of α-SMA (α-SMA/β-actin, %)” value was 42.10%.
Regarding “His-(D-Ser)-Gln-Gly-Thr-Phe-Thr-Ser-Asp-Tyr-Ser-Lys-Tyr-Leu-Asp-Lys(PEG2-PEG2-γGlu-CO(CH2)16CH3)-Arg-Arg-Ala-Gln-Asp-Phe-Val-Gln-Trp-Leu-Met-Asn-Thr-Gly-Gly-Pro-Ser-Ser-Gly-Ala-Pro-Pro-Pro-Ser-NH2 (H[dS]QGTFTSDYSKYLDK([PEG2′-PEG2′-γGlu-Stearoyl])RRAQDFVQWLMNTGGPSSGAPPPS-NH2) [Compound 36]”, the “Relative expression of α-SMA (α-SMA/β-actin, %)” value is on record as 42.49%.
With “His-(D-Ser)-Gln-Gly-Thr-Phe-Thr-Ser-Asp-Tyr-Ser-Lys-Tyr-Leu-Asp-Lys(PEG2-PEG2-γGlu-CO(CH2)16CO2H)-Arg-Arg-Ala-Gln-Asp-Phe-Val-Gln-Trp-Leu-Met-Asn-Thr-Gly-Gly-Pro-Ser-Ser-Gly-Ala-Pro-Pro-Pro-Ser-NH2 (H[dS]QGTFTSDYSKYLDK([PEG2′-PEG2′-γGlu-C18 diacid])RRAQDFVQWLMNTGGPSSGAPPPS-NH2) [Compound 34]”, the “Relative expression of α-SMA (α-SMA/β-actin, %)” value worked out at 38.18%.
In the case of “His-(D-Ser)-Gln-Gly-Thr-Phe-Thr-Ser-Asp-Tyr-Ser-Lys-Tyr-Leu-Asp-Ser-Lys(PEG2-PEG2-γGlu-CO(CH2)16CH3)-Ala-Ala-His-Asp-Phe-Val-Glu-Trp-Leu-Leu-Arg-Ala-NH2 (H[dS]QGTFTSDYSKYLDSK([PEG2′-PEG2′-γGlu-Stearoyl])AAHDFVEWLLRA-NH2) [Compound 25]”, the “Relative expression of α-SMA (α-SMA/β-actin, %)” value was 53.34%.
Consider “His-(D-Ser)-Gln-Gly-Thr-Phe-Thr-Ser-Asp-Tyr-Ser-Lys-Tyr-Leu-Asp-Ser-Lys(PEG2-PEG2-γGlu-CO(CH2)16CH3)-Ala-Ala-His-Asp-Phe-Val-Glu-Trp-Leu-Leu-Asn-Gly-Gly-Pro-Ser-Ser-Gly-Aln-Pro-Pro-Pro-Ser-NH2 (H[dS]QGTFTSDYSKYLDSK([PEG2′-PEG2′-γGlu-Stearoyl])AAHDFVEWLLNGGPSSGAPPPS-NH2; also: position 35: name writes Aln, letters give A) [Compound 22]”, for which the “Relative expression of α-SMA (α-SMA/β-actin, %)” value is given as 40.56%.
Then “His-(D-Ser)-Gln-Gly-Thr-Phe-Thr-Ser-Asp-Tyr-Ser-Lys-Tyr-Leu-Asp-Ser-Lys(PEG2-PEG2-γGlu-CO(CH2)16CO2H)-Ala-Ala-His-Asp-Phe-Val-Glu-Trp-Leu-Leu-Asn-Gly-Gly-Pro-Ser-Ser-Gly-Ala-Pro-Pro-Pro-Ser-NH2 (H[dS]QGTFTSDYSKYLDSK([PEG2′-PEG2′-γGlu-C18 diacid])AAHDFVEWLLNGGPSSGAPPPS-NH2) [Compound 21]”, with 37.66%; and “His-Aib-Gln-Gly-Thr-Phe-Thr-Ser-Asp-Lys(PEG2-PEG2-γGlu-CO(CH2)14CH3)-Ser-Lys-Tyr-Leu-Asp-Aib-Arg-Arg-Ala-Gln-Asp-Phe-Val-Gln-Trp-Leu-Leu-Asp-Gly-Gly-Pro-Ser-Ser-Gly-Ala-Pro-Pro-Pro-Ser-NH2 (H[Aib]QGTFTSDK([PEG2′-PEG2′-γGlu-Palmitoyl])SKYLD[Aib]RRAQDFVQWLLDGGPSSGAPPPS-NH2) [Compound 8]”, with 38.25%; and “His-Aib-Gln-Gly-Thr-Phe-Thr-Ser-Asp-Lys(PEG2-PEG2-γGlu-CO(CH2)14CH3)-Ser-Lys-Tyr-Leu-Asp-Glu-Arg-Arg-Ala-Gln-Asp-Phe-Val-Gln-Trp-Leu-Leu-Asp-Gly-Gly-Pro-Ser-Ser-Gly-Ala-Pro-Pro-Pro-Ser-NH2 (H[Aib]QGTFTSDK([PEG2′-PEG2′-γGlu-Palmitoyl])SKYLDERRAQDFVQWLLDGGPSSGAPPPS-NH2) [Compound 16]”, with 40.35%.
To “His-Aib-Gln-Gly-Thr-Phe-Thr-Ser-Asp-Lys(PEG2-PEG2-γGlu-CO(CH2)14CO2H)-Ser-Lys-Tyr-Leu-Asp-Aib-Arg-Arg-Ala-Gln-Asp-Phe-Val-Gln-Trp-Leu-Leu-Asp-Gly-Gly-Pro-Ser-Ser-Gly-Ala-Pro-Pro-Pro-Ser-NH2 (H[Aib]QGTFTSDK([PEG2′-PEG2′-γGlu-C16 diacid])SKYLD[Aib]RRAQDFVQWLLDGGPSSGAPPPS-NH2) [Compound 11]” belongs 41.78%; to “His-Aib-Gln-Gly-Thr-Phe-Thr-Ser-Asp-Lys(PEG2-PEG2-γGlu-CO(CH2)14CO2H)-Ser-Lys-Tyr-Leu-Asp-Glu-Arg-Arg-Ala-Gln-Asp-Phe-Val-Gln-Trp-Leu-Leu-Asp-Gly-Gly-Pro-Ser-Ser-Gly-Ala-Pro-Pro-Pro-Ser-NH2 (H[Aib]QGTFTSDK([PEG2′-PEG2′-γGlu-C16 diacid])SKYLDERRAQDFVQWLLDGGPSSGAPPPS-NH2) [Compound 13]”, 37.93%.
As to “His-Aib-Gln-Gly-Thr-Phe-Thr-Ser-Asp-Lys(PEG2-PEG2-γGlu-CO(CH2)16CH3)-Ser-Lys-Tyr-Leu-Asp-Aib-Arg-Arg-Ala-Gln-Asp-Phe-Val-Gln-Trp-Leu-Leu-Asp-Gly-Gly-Pro-Ser-Ser-Gly-Ala-Pro-Pro-Pro-Ser-NH2 (H[Aib]QGTFTSDK([PEG2′-PEG2′-γGlu-Stearoyl])SKYLD[Aib]RRAQDFVQWLLDGGPSSGAPPPS-NH2) [Compound 12]”, the “Relative expression of α-SMA (α-SMA/β-actin, %)” value was found to be 36.99%.
“His-Aib-Gln-Gly-Thr-Phe-Thr-Ser-Asp-Lys(PEG2-PEG2-γGlu-CO(CH2)16CH3)-Ser-Lys-Tyr-Leu-Asp-Glu-Arg-Arg-Ala-Gln-Asp-Phe-Val-Gln-Trp-Leu-Leu-Asp-Gly-Gly-Pro-Ser-Ser-Gly-Ala-Pro-Pro-Pro-Ser-NH2 (H[Aib]QGTFTSDK([PEG2′-PEG2′-γGlu-Stearoyl])SKYLDERRAQDFVQWLLDGGPSSGAPPPS-NH2) [Compound 14]”: the “Relative expression of α-SMA (α-SMA/β-actin, %)” value was determined as 42.80%.
For “His-Aib-Gln-Gly-Thr-Phe-Thr-Ser-Asp-Lys(PEG2-PEG2-γGlu-CO(CH2)16CO2H)-Ser-Lys-Tyr-Leu-Asp-Aib-Arg-Arg-Ala-Gln-Asp-Phe-Val-Gln-Trp-Leu-Leu-Asp-Gly-Gly-Pro-Ser-Ser-Gly-Ala-Pro-Pro-Pro-Ser-NH2 (H[Aib]QGTFTSDK([PEG2′-PEG2′-γGlu-C18 diacid])SKYLD[Aib]RRAQDFVQWLLDGGPSSGAPPPS-NH2) [Compound 19]”, the “Relative expression of α-SMA (α-SMA/β-actin, %)” value is listed as 39.75%.
In the case of “His-Aib-Gln-Gly-Thr-Phe-Thr-Ser-Asp-Lys(PEG2-PEG2-γGlu-CO(CH2)16CO2H)-Ser-Lys-Tyr-Leu-Asp-Glu-Arg-Arg-Ala-Gln-Asp-Phe-Val-Gln-Trp-Leu-Leu-Asp-Gly-Gly-Pro-Ser-Ser-Gly-Ala-Pro-Pro-Pro-Ser-NH2 (H[Aib]QGTFTSDK([PEG2′-PEG2′-γGlu-C18 diacid])SKYLDERRAQDFVQWLLDGGPSSGAPPPS-NH2) [Compound 15]”, the “Relative expression of α-SMA (α-SMA/β-actin, %)” value was 57.29%.
